The text below walks through data of ChEMBL document CHEMBL5126517, “Structure-Activity Relationship in the Leucettine Family of Kinase Inhibitors” (J Med Chem, 2022).

Molecules are shown by their SMILES.

The target of data set [1] is Glycogen synthase kinase-3 (Sus scrofa, UniProt B2LUN4+I6LNT8). Nature of the data set: Inhibition of porcine brain GSK-3alpha/beta using YRRAAVPPSPSLSRHSSPHQpSEDEEE as substrate incubated for 30 mins in presence of ATP by scintillation counting method. The data set is classed as tissue-based.
The target in data set [2] is Dual specificity protein kinase CLK4 (Mus musculus, UniProt O35493). Briefly: Inhibition of GST-fused mouse recombinant CLK4 expressed in Escherichia coli using GRSRSRSRSRSR peptide as substrate incubated for 30 mins in presence of ATP by scintillation counting method.
Data set [3] deals with Dual specificity protein kinase CLK3 (Mus musculus, UniProt O35492). Nature of the data set: Inhibition of GST-fused mouse recombinant CLK3 expressed in Escherichia coli using GRSRSRSRSRSR peptide as substrate incubated for 30 mins in presence of ATP by scintillation counting method.
Data set [4] deals with Dual specificity protein kinase CLK1 (Mus musculus, UniProt P22518). Nature of the data set: Inhibition of GST-fused mouse recombinant CLK1 expressed in Escherichia coli using GRSRSRSRSRSR peptide as substrate incubated for 30 mins in presence of ATP by scintillation counting method.
Data set [5] has as its target Dual specificity protein kinase CLK2 (Mus musculus, UniProt O35491). Briefly: Inhibition of mouse recombinant GST-fused CLK2 expressed in Escherichia coli using GRSRSRSRSRSR peptide as substrate incubated for 30 mins in presence of ATP by scintillation counting method.
In data set [6] the target is Dual specificity tyrosine-phosphorylation-regulated kinase 1A (Homo sapiens, UniProt Q13627). Briefly: Inhibition of GST-fused human recombinant DYRK1A expressed in Escherichia coli using GRSRSRSRSRSR peptide as substrate incubated for 30 mins in presence of ATP by scintillation counting method.
Data set [7] has as its target Dual specificity tyrosine-phosphorylation-regulated kinase 1B (Homo sapiens, UniProt Q9Y463).
In data set [8] the target is T1, Dual specificity tyrosine-phosphorylation-regulated kinase 2 (Homo sapiens, UniProt Q92630).
T1 sequence (Q92630 whole entry): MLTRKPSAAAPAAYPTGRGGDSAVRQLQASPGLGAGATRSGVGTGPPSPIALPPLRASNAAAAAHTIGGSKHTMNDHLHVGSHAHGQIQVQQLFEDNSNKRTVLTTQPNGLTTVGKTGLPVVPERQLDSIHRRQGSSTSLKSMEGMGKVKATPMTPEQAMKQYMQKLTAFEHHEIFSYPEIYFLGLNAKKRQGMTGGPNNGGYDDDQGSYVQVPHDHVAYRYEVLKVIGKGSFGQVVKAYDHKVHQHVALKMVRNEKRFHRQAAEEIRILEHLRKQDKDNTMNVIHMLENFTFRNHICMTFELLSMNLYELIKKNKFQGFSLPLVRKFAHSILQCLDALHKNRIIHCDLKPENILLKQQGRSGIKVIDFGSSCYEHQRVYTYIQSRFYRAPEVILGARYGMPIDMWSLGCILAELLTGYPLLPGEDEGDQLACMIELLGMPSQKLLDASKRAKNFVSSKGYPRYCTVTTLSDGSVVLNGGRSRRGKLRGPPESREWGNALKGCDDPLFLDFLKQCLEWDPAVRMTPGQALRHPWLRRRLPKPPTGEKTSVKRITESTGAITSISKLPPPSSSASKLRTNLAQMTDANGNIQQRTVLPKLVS
Briefly: Inhibition of GST-fused human recombinant DYRK2 expressed in Escherichia coli using GRSRSRSRSRSR peptide as substrate incubated for 30 mins in presence of ATP by scintillation counting method.

For data set [9], the target named is T2, Dual specificity tyrosine-phosphorylation-regulated kinase 3 (Homo sapiens, UniProt O43781).
T2 sequence (O43781 whole entry): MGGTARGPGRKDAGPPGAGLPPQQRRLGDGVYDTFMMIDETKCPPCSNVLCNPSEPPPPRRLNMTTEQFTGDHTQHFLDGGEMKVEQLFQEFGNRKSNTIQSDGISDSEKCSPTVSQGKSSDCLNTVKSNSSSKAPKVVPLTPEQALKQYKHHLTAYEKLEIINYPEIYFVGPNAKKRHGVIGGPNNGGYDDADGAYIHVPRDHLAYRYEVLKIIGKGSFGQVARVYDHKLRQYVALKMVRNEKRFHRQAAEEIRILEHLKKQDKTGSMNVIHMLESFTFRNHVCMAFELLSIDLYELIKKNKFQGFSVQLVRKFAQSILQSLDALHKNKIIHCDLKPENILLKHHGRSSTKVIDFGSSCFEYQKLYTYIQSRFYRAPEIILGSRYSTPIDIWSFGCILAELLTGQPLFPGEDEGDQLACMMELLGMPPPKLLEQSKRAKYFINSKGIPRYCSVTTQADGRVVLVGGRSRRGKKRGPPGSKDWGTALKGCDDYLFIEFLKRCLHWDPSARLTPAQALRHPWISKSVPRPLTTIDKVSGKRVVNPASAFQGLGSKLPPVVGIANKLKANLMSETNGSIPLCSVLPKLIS
Nature of the data set: Inhibition of GST-fused human recombinant DYRK3 expressed in Escherichia coli using GRSRSRSRSRSR peptide as substrate incubated for 30 mins in presence of ATP by scintillation counting method.

Data set [10] addresses Serine/threonine-protein kinase pim-1 (Homo sapiens, UniProt P11309). Briefly: Inhibition of human recombinant Pim1 expressed in Escherichia coli using histone H1 as substrate incubated for 30 mins in presence of ATP by scintillation counting method.
For data set [11], the target named is Casein kinase 2 (Homo sapiens, UniProt P67870+P68400+P19784+Q8NEV1). Nature of the data set: Inhibition of human recombinant CK2 using RRRDDDSDDD peptide as substrate incubated for 30 mins in presence of ATP by scintillation counting method. The data set is classed as protein assay.
A short description of data set [12]: Neurotoxicity against mouse HT-22 cells assessed as cell survival treated for 24 hrs by MTS assay. The data set is classed as toxicity, cell-based. In general terms: Formazan colour is commonly taken as a measure of viable cells.
For data set [13], the system named is U2OS. Briefly: Induction of PI3K/mTor-dependent autophagy in human U2OS cells assessed as number of LC3 foci per cell at 10 uM measured after 4 hrs. The data set is classed as cell-based. The conditions noted are these: filed as activator.
Data set [14] concerns HT-22. Briefly: Modulation of CLK1 pre-mRNA splicing in mouse HT-22 cells assessed as inclusion of CLK1 exon 4 by measuring change in threshold cycle at 10 uM measured after 4 hrs by real time PCR analysis. The data set is classed as cell-based. The conditions noted are these: filed as modulator. Background: Real-time PCR tracks product formation cycle by cycle.
Data set [15] deals with Cannabinoid receptor 1 (Homo sapiens, UniProt P21554). Briefly: Antagonist activity at CP-55940-activated CB1 receptor (unknown origin) at 10 uM by beta-arrestin assay relative to control. The data set is classed as functional. Also noted: scale not given: the % may be the effect or the level left.
A short description of data set [16]: Neurotoxicity against mouse HT-22 cells assessed as cell survival at 20 uM treated for 24 hrs by MTS assay. The data set is classed as toxicity, cell-based. To be noted: ht-22, 24 h.
Data set [17] relates to HT-22. Briefly: Neuroprotective activity against glutamate-induced cell death in mouse HT-22 cells treated for 24 hrs by MTS assay. The data set is classed as functional, cell-based. To be noted: HT-22, 24 h.

Dual specificity protein kinase CLK1, sequence (P22518 whole entry, the tested form may be a part): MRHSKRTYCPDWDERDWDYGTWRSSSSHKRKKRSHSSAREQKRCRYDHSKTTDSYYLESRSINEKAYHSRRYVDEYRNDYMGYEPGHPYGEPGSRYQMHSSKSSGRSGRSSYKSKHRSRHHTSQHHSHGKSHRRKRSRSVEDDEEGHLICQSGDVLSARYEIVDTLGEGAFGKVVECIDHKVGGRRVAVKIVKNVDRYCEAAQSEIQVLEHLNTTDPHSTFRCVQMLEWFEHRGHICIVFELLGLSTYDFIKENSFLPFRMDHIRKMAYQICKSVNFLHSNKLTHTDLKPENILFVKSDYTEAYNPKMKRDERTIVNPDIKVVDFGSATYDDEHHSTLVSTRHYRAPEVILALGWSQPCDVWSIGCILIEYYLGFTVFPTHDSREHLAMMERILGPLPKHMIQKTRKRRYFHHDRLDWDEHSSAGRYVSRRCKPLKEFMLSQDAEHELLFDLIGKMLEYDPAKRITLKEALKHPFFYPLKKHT
Dual specificity protein kinase CLK4, sequence (O35493 whole entry, the tested form may be a part): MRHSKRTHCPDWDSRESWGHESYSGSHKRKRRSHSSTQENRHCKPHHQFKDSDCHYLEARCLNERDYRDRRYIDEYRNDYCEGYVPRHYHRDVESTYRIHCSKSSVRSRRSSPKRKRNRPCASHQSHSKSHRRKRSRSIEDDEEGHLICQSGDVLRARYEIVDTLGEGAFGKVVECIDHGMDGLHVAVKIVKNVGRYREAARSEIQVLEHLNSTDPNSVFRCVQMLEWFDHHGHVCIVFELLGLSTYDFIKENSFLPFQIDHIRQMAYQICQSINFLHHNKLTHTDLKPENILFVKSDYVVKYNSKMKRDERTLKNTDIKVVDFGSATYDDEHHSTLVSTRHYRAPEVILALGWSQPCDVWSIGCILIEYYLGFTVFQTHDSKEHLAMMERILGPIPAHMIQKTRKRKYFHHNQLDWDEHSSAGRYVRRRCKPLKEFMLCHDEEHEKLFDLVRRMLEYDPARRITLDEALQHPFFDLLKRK
Cannabinoid receptor 1, sequence (P21554 whole entry): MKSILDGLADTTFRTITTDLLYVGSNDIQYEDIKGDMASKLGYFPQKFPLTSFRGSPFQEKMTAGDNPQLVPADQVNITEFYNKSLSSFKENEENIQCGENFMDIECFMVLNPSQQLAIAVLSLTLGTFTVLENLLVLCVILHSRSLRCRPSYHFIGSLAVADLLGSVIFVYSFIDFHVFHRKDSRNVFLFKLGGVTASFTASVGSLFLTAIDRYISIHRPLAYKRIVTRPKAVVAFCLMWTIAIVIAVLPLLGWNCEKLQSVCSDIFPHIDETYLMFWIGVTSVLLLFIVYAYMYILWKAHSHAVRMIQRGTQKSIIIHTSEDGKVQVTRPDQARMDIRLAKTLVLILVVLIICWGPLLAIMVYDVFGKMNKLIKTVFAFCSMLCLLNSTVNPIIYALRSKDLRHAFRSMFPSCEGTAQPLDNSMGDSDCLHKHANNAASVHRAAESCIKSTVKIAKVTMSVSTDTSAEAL
Dual specificity protein kinase CLK3, sequence (O35492 whole entry, the tested form may be a part): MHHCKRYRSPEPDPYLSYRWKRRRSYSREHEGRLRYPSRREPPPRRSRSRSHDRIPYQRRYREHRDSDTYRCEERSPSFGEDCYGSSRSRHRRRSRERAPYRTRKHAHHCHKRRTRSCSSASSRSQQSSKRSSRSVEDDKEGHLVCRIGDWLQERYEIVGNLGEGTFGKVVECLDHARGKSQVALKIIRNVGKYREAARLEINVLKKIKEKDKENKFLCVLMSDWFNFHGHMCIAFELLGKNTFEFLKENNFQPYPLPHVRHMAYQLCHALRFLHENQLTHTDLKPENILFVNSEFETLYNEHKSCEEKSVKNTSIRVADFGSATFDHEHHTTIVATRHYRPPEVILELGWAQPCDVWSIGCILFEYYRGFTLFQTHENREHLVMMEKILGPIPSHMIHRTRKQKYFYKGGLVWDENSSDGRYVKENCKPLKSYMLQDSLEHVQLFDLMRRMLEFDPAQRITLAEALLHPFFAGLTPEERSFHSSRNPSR
Dual specificity protein kinase CLK2, sequence (O35491 whole entry, the tested form may be a part): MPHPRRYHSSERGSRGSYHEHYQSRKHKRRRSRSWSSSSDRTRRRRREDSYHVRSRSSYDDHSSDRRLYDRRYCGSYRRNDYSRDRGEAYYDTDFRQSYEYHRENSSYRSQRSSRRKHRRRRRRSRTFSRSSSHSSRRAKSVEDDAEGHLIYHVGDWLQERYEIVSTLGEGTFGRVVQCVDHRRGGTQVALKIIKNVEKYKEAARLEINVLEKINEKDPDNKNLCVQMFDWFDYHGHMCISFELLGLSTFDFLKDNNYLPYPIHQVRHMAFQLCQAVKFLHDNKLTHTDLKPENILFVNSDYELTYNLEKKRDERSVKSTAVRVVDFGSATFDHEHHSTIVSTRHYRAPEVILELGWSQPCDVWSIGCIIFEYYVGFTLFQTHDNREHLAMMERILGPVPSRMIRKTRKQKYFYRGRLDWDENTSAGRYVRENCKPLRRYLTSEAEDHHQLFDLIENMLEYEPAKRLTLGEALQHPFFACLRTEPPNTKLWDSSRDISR
Dual specificity tyrosine-phosphorylation-regulated kinase 1B, sequence (Q9Y463 whole entry): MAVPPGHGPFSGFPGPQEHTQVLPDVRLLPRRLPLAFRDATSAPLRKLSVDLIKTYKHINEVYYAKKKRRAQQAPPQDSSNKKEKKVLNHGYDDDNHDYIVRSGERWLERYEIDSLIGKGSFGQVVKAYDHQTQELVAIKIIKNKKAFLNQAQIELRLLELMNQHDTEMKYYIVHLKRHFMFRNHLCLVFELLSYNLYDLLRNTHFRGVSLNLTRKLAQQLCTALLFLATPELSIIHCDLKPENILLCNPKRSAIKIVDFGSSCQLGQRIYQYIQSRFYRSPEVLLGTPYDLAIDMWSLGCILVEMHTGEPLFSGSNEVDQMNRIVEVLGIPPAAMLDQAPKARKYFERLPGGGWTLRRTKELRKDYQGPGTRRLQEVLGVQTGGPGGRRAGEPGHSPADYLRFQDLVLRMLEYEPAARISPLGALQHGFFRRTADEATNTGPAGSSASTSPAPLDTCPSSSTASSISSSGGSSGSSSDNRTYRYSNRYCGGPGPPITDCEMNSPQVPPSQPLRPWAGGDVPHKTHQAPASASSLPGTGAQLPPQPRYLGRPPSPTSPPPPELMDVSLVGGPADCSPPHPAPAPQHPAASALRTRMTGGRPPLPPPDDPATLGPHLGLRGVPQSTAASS
Serine/threonine-protein kinase pim-1, sequence (P11309 whole entry): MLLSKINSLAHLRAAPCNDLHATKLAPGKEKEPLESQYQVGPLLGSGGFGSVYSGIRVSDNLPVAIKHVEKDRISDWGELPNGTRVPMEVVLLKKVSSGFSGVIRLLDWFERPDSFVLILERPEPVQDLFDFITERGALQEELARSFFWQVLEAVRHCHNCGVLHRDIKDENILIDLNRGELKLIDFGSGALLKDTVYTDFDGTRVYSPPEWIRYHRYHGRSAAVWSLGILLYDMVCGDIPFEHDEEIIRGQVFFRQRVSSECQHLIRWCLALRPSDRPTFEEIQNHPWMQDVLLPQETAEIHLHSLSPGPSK

On to `CNC1=N/C(=C\c2ccc3c(c2)OCO3)C(=O)N1`, for which the IC50 was determined as 6.2 µM in [1]; 94 nM in data set [2]; 1200 nM in data set [3]; 140 nM in [4]; 530 nM in [5]; 160 nM in data set [6]. The IC50 in data set [7] was found to be 500 nM; in data set [8], 130 nM; in [9] it was 480 nM; in data set [10] it was 1200 nM; in [11], 1.8 µM. Besides, the EC50 at 24 h in data set [12] is more than 20 µM. Besides, the Activity was 4.9 in [13], -14.7% in data set [15] and “Non-Toxic” in data set [16]. In data set [14], the deltaCT worked out at 1.
On to `CCCNC1=N/C(=C\c2ccc3c(c2)OCO3)C(=O)N1`, for which the IC50 was determined as 4.1 µM in [1]; 61 nM in data set [2]; 3000 nM in data set [3]; 70 nM in data set [4]; 550 nM in data set [5]; 120 nM in data set [6]. The IC50 came to 310 nM in [7]; 100 nM in data set [8]; 650 nM in data set [9]; 1200 nM in data set [10]; 1.4 µM in data set [11]. Moreover, in data set [12], the EC50 at 24 h is more than 20 µM. Moreover, the Activity was 5.1 in data set [13] and -14.8% in data set [15]. The deltaCT in [14] worked out at 5.11.
Consider `CCSC1=N/C(=C\c2ccc3c(c2)OCO3)C(=O)N1`, for which the IC50 in [1] was 0.9 µM; in data set [2], 23 nM; in data set [3] it was 1400 nM; in [4], 29 nM; in [5], 120 nM; in data set [6], 33 nM. The IC50 in [7] worked out at 72 nM; in data set [8] it was 32 nM; in [9], 160 nM; in data set [10] it was 340 nM; in data set [11] it was 0.6 µM. Further, the EC50 at 24 h in data set [12] was more than 20 µM. The Activity was 5.5 in data set [13], -7.5% in [15] and “Non-Toxic” in data set [16]. Further, in data set [14], the deltaCT came out at 0.57.
Turning to `O=C1NC(Nc2ccccn2)=N/C1=C\c1ccc2c(c1)OCO2`, the IC50 worked out at 1.7 µM in data set [1]; 53 nM in [2]; 510 nM in [3]; 72 nM in data set [4]; 220 nM in [5]; 44 nM in data set [6]. Further, the concentration for half-maximal inhibition (IC50) was 200 nM in data set [7]; 33 nM in [8]; 310 nM in [9]; 480 nM in [10]; 0.13 µM in data set [11]. The EC50 at 24 h in [12] was more than 20 µM. In [17], this compound registered an EC50 of more than 20 µM. For the same compound, the results for the Activity in [13] and in data set [15] were 5.5 and -18.3%, respectively.
With `NC1=N/C(=C\c2ccc3c(c2)OCO3)C(=O)N1`, the IC50 in [1] worked out at 2.1 µM; in [2], 37 nM; in data set [3], 950 nM; in data set [4], 41 nM; in data set [5], 180 nM; in [6], 35 nM. In addition, the IC50 in data set [7] was determined as 190 nM; in data set [8], 32 nM; in [9] it was 240 nM; in [10], 320 nM; in data set [11], 0.93 µM. In data set [12], the EC50 at 24 h is more than 20 µM. For the same compound, the Activity in [13] is 5; in data set [15], -2.2%. In addition, in data set [14], the deltaCT was 3.02.
Turning to `C/C(=C1/N=C(Nc2ccccc2)NC1=O)c1ccc2c(c1)OCO2`, the IC50 in data set [2] is 5900 nM; in [3], more than 10000 nM; in data set [4], not below 10000 nM; in [5], more than 10000 nM; in data set [6], 8500 nM; in data set [7] it was more than 10000 nM. For the same compound, in [8], the IC50 came to 1600 nM. The IC50 at 24 h in [12] is more than 20 µM. Moreover, the values for the Activity in [13] and in data set [15] were 5.8 and -42.1%, respectively. Also, the deltaCT in [14] stood at 0.38.
As to `O=C1NC(Nc2ccc(O)cc2)=N/C1=C\c1ccc2c(c1)OCO2`, the IC50 turned out to be 0.53 µM in [1]; 18 nM in data set [2]; 280 nM in [3]; 22 nM in data set [4]; 83 nM in data set [5]; 13 nM in data set [6]. The IC50 came to 24 nM in data set [7]; 11 nM in data set [8]; 140 nM in [9]; 1100 nM in data set [10]; 0.14 µM in [11]. Moreover, the EC50 at 24 h in data set [12] is more than 20 µM. The EC50 in data set [17] turned out to be 9 µM. In addition, the Activity in [13] is 12; in data set [15], -25.5%. Further, the deltaCT in data set [14] was 7.91.
Turning to `CCCNC1=N/C(=C\c2ccc3c(c2)OCO3)C(=O)N1c1ccccc1`, the IC50 in data set [1] was more than 10 µM; in data set [2], 1200 nM; in data set [3] it was 9500 nM; in data set [4], 2000 nM; in data set [5] it was 2500 nM; in data set [6] it was more than 10000 nM. In addition, the IC50 in data set [7] was more than 10000 nM; in [8], 7200 nM; in [9], 7000 nM. The EC50 at 24 h in [12] was more than 20 µM. The Activity was 4.7 in data set [13] and -17.9% in data set [15]. Besides, the deltaCT in data set [14] is -0.05.
As to `CN(C1=N/C(=C\c2ccc3c(c2)OCO3)C(=O)N1)c1ccccc1`, the IC50 is 6.2 µM in [1]; 130 nM in data set [2]; 2600 nM in [3]; 310 nM in [4]; 1200 nM in data set [5]; 380 nM in data set [6]. Also, the IC50 turned out to be 680 nM in data set [7]; 320 nM in data set [8]; 1800 nM in data set [9]; 2000 nM in data set [10]; 2.1 µM in [11]. In addition, in data set [12], the EC50 at 24 h is more than 20 µM. In data set [17], this compound showed an EC50 of more than 20 µM. Moreover, the Activity was 4.7 in [13] and -9.1% in data set [15].

The IC50 is the concentration at which inhibition is half-maximal. A word on the EC50: it is the concentration that produces a half-maximal response.
